Data published in publication PMC10589313 (Nature Communications, 2023).
“And” between values parts separate entries of the source, which are not always exact repeats. Equal entries are not always repeated.

Key:
[1] = molecular target: T1, human H4R Q347A mutant (Homo sapiens, UniProt Q9H3N8, Q347A); assay: TGFα shedding assay, H4R Q347A mutant; type: cell-based
T1 construct: a mutant H4R (human, full-length, and untagged); expressed in transfected cells; host or cells: HEK293A
Protocol: (§1) The mutants were prepared using the primers listed in Supplementary Table 2. […] The chimeric Gαq/i1 subunit comprises the Gαq backbone and Gαi1-derived six-amino acid C-terminus and couples with Gi-coupled H4R but induces a Gq-dependent TGFα shedding response. After culturing for 1 day and incubating at 37 °C in a 5% CO2 incubator, the transfected cells were harvested by trypsinization, neutralized with Dulbecco’s modified Eagle’s medium containing 10% fetal calf serum (FCS) and penicillin–streptomycin, washed once with Hank’s balanced salt solution (HBSS) containing 5 mM of HEPES (pH 7.4), and resuspended in 6 mL of the HEPES-containing HBSS. The cell suspension was seeded into a 96-well plate at a volume of […] per well (typically, 48 wells per transfected cells) and incubated for 30 min in the CO2 incubator. Test compounds (10×, diluted in 0.01% BSA and 5 mM of HEPES-containing HBSS, […] volume) were added to duplicate wells and incubated for 1 h. After centrifugation, the conditioned medium ([…]) was transferred to an empty 96-well plate. AP reaction solution [10 mM of p-nitrophenylphosphate (p-NPP), 120 mM of Tris–HCl (pH 9.5), 40 mM of NaCl, and 10 mM of MgCl2] was dispensed into the cell culture plates and plates containing conditioned media ([…]). Absorbance was measured at 405 nm before and after a 1-h incubation period at 25 °C using a microplate reader (iMark™ Microplate Absorbance Reader; BioRad). Ligand-induced AP-TGFα release was calculated as previously described. The vehicle-treated AP-TGFα release signal was set as a baseline unless otherwise specified. AP-TGFα release signals were fitted with a four-parameter sigmoidal concentration-response curve, from which EC50 and Emax values were obtained, using GraphPad Prism 9 software (GraphPad Prism). Negative values of logarithmically transformed EC50 values (pEC50) were used to calculate the mean and standard error of independent experiments.
(§2) All functional study data were analyzed using Prism 9 (GraphPad) and are presented as mean ± standard error of the mean (SEM) of three independent experiments. Statistical analyses were performed using Prism 9 (GraphPad) with one-way analysis of variance followed by Dunnett’s post-hoc test. Values with p < 0.05 are considered statistically significant.

[2] = molecular target: T2, human H4R F344A mutant (Homo sapiens, UniProt Q9H3N8, F344A); assay: TGFα shedding assay, H4R F344A mutant; type: cell-based
T2 construct: a mutant H4R (human, full-length, and untagged); expressed in transfected cells; host or cells: HEK293A
Protocol: (§3) The mutants were prepared using the primers listed in Supplementary Table 2. […] The chimeric Gαq/i1 subunit comprises the Gαq backbone and Gαi1-derived six-amino acid C-terminus and couples with Gi-coupled H4R but induces a Gq-dependent TGFα shedding response. After culturing for 1 day and incubating at 37 °C in a 5% CO2 incubator, the transfected cells were harvested by trypsinization, neutralized with Dulbecco’s modified Eagle’s medium containing 10% fetal calf serum (FCS) and penicillin–streptomycin, washed once with Hank’s balanced salt solution (HBSS) containing 5 mM of HEPES (pH 7.4), and resuspended in 6 mL of the HEPES-containing HBSS. The cell suspension was seeded into a 96-well plate at a volume of […] per well (typically, 48 wells per transfected cells) and incubated for 30 min in the CO2 incubator. Test compounds (10×, diluted in 0.01% BSA and 5 mM of HEPES-containing HBSS, […] volume) were added to duplicate wells and incubated for 1 h. […] Absorbance was measured at 405 nm before and after a 1-h incubation period at 25 °C using a microplate reader (iMark™ Microplate Absorbance Reader; BioRad). Ligand-induced AP-TGFα release was calculated as previously described. […]
(§4) All functional study data were analyzed using Prism 9 (GraphPad) and are presented as mean ± standard error of the mean (SEM) of three independent experiments. […]

[3] = molecular target: T3, human H4R Y95A mutant (Homo sapiens, UniProt Q9H3N8, Y95A); assay: TGFα shedding assay, H4R Y95A mutant; type: cell-based
T3 construct: a mutant H4R (human, full-length, and untagged); expressed in transfected cells; host or cells: HEK293A
Protocol: as §1, §4

[4] = molecular target: T4, human H4R N147W mutant (Homo sapiens, UniProt Q9H3N8, N147W); assay: TGFα shedding assay, H4R N147W mutant; type: cell-based; conditions: for EC50: EC50 (nM)
T4 construct: a mutant H4R (human, full-length, and untagged); expressed in transfected cells; host or cells: HEK293A
Protocol: as §1, §2

[5] = molecular target: T5, human H4R Q347G mutant (Homo sapiens, UniProt Q9H3N8, Q347G); assay: TGFα shedding assay, H4R Q347G mutant; type: cell-based
T5 construct: a mutant H4R (human, full-length, and untagged); expressed in transfected cells; host or cells: HEK293A
Protocol: as §1, §2

[6] = molecular target: H4R; conditions: read-out: binding affinity (Ki) for H4R; cited from earlier work
[7] = molecular target: T6, human H4R E182N mutant (Homo sapiens, UniProt Q9H3N8, E182N); assay: TGFα shedding assay, H4R E182N mutant; type: cell-based
T6 construct: a mutant H4R (human, full-length, and untagged); expressed in transfected cells; host or cells: HEK293A
Protocol: as §1, §4

[8] = test system: H1R; conditions: in words; cited from earlier work
[9] = molecular target: T7, human H4R D94A mutant (Homo sapiens, UniProt Q9H3N8, D94A); assay: TGFα shedding assay, H4R D94A mutant; type: cell-based
T7 construct: a mutant H4R (human, full-length, and untagged); expressed in transfected cells; host or cells: HEK293A
Protocol: as §1, §4

[10] = molecular target: T8, human H4R E182A mutant (Homo sapiens, UniProt Q9H3N8, E182A); assay: TGFα shedding assay, H4R E182A mutant; type: cell-based
T8 construct: a mutant H4R (human, full-length, and untagged); expressed in transfected cells; host or cells: HEK293A
Protocol: as §3, §4

[11] = Imetit (M) -5 (log concentration), raw replicate values

T8 sequence (Q9H3N8 whole entry E182A): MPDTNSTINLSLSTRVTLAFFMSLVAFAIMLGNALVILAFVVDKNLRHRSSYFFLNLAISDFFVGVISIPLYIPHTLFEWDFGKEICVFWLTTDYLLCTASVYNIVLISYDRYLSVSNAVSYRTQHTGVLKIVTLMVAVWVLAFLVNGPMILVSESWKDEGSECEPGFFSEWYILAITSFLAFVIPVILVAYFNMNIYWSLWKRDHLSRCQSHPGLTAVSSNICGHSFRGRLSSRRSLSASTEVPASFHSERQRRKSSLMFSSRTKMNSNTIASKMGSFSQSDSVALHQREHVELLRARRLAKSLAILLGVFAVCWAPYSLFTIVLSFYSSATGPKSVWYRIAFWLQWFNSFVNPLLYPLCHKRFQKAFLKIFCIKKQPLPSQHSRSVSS
T5 sequence (Q9H3N8 whole entry Q347G): as the sequence (Q9H3N8 whole entry E182A) above, with A182E, Q347G counted along it
T2 sequence (Q9H3N8 whole entry F344A): as the sequence (Q9H3N8 whole entry E182A) above, with A182E, F344A counted along it
T3 sequence (Q9H3N8 whole entry Y95A): as the sequence (Q9H3N8 whole entry E182A) above, with Y95A, A182E counted along it
T6 sequence (Q9H3N8 whole entry E182N): as the sequence (Q9H3N8 whole entry E182A) above, with A182N counted along it
T7 sequence (Q9H3N8 whole entry D94A): as the sequence (Q9H3N8 whole entry E182A) above, with D94A, A182E counted along it
T4 sequence (Q9H3N8 whole entry N147W): as the sequence (Q9H3N8 whole entry E182A) above, with N147W, A182E counted along it
T1 sequence (Q9H3N8 whole entry Q347A): as the sequence (Q9H3N8 whole entry E182A) above, with A182E, Q347A counted along it

SMILES: N=C(N)SCCc1cnc[nH]1 [Imetit, imetit]
- EC50 ([1]; pEC50 mean ± SEM, Q347A mutant): 12.3 nM
- Emax ([1]; read-out: Emax (%) mean ± SEM): 19.3 ± 1.1%
- EC50 [2]: > 10000 nM
- Shedding assay response, F344A [2, 11]: 3.594 and 4.917 and 1.113 and -1.672 and 3.266 and -0.2412 and 0.127 and -2.198 and -1.529
- EC50 [3]: > 10000 nM
- Shedding assay response, Y95A [3, 11]: 0.2008 and 4.141 and 6.475 and 5.892 and -1.081 and 3.761 and 1.333 and 3.151 and 12.3655
- EC50 ([4]; N147W mutant): 603 nM
- EC50 ([4]; N147W, single experiments, source data Figure 4e-f): 569 nM and 612 nM and 627 nM
- Shedding assay response, N147W [4, 11]: 17.8239 and 17.9174 and 17.7465 and 15.1009 and 14.2938 and 15.4251 and 18.7186 and 19.6688 and 18.9313
- fold of change ([4]; N147W mutant, EC50 relative to WT): 20.2 fold
- Emax ([4]; read-out: Emax (%) mean ± SEM): 18.4 ± 1.29%
- EC50 ([5]; EC50 (nM), Q347G mutant): 6.2 nM
- EC50 ([5]; EC50 (nM), Q347G, single experiments, source data Figure 4e-f): 1.75 nM and 12.3 nM and 4.7 nM
- Shedding assay response, Q347G [5, 11]: 13.312 and 10.4592 and 11.4881 and 12.2257 and 13.3616 and 12.7037 and 13.9485 and 10.6151 and 26.3814
- signaling activity at mutant, in words ([5]; Q347G (H1R/H2R type) mutant vs wild type): slight increase
- fold of change ([5]; Q347G mutant, EC50 relative to WT): 0.2 fold
- EC50 ([5]; pEC50, Q347G, single experiments, source data Figure 4e-f): 12.3 nM
- EC50 ([5]; pEC50 mean ± SEM, Q347G mutant): 4.68 nM
- Emax ([5]; read-out: Emax (%) mean ± SEM): 12.9 ± 1.22%
- Ki [6]: 2.7 nM
- EC50 [7]: > 10000 nM
- Shedding assay response, E182N [7, 11]: -0.3367 and 1.68 and -1.08 and 4.253 and 4.399 and 3.645 and 9.053 and 3.546 and 4.747
- binding to H1R [8]: does not bind
- EC50 [9]: > 10000 nM
- Shedding assay response, D94A [9, 11]: -0.3449 and 0.03257 and -1.499 and 0.2405 and 1.217 and -0.1126 and 0.7155 and 3.933 and 12.3814
- EC50 [10]: > 10000 nM
- Shedding assay response, E182A [10, 11]: 0.5777 and -0.6527 and 0.544 and 1.716 and -0.08867 and -2.204 and 4.0352 and 2.359 and 1.291
